Source: the NIST ThermoML archive (doi:10.1016/j.jct.2011.08.016)

Test: xn = mol fraction of the nth substance listed
Conditions: 313.16 K, Liquid, Vibrating tube method

CCCCCCCCCC [decane] + CCCCCCC
mass density [kg/m3]
Conditions | x2 = 0.0531 | x2 = 0.2594
1000 kPa | 713.67 | 706.37
2000 kPa | 714.44 | 707.17
3000 kPa | 715.27 | 707.97
4000 kPa | 716.08 | 708.78
5000 kPa | 716.94 | 709.65
6000 kPa | 717.67 | 710.5
7000 kPa | 718.51 | 711.35
8000 kPa | 719.34 | 712.2
9000 kPa | 720.13 | 713.05
10000 kPa | 721 | 713.88
10990 kPa | 721.8 | 714.7
12000 kPa | 722.62 | 715.51
13000 kPa | 723.44 | 716.3
14000 kPa | 724.26 | 717.1
15000 kPa | 725.05 | 717.87
16000 kPa | 725.84 | 718.64
17000 kPa | 726.57 | 719.39
18000 kPa | 727.29 | 720.16
19000 kPa | 728.02 | 720.88
20000 kPa | 728.71 | 721.61
21000 kPa | 729.39 | 722.32
22000 kPa | 730.07 | 723.02
23000 kPa | 730.67 | 723.68
